In data set [1] the test system is MDA-MB-231. Kind of data set: Cytotoxicity against human MDA-MB-231 cells assessed as cell growth inhibition. In kind it is functional, cell-based.
In data set [2] the target is Phosphoglycerate mutase 1 (Homo sapiens, UniProt P18669). The data set is described as follows: Inhibition of PGAM1 in human MDA-MB-231 cells. The data set is classed as cell-based.
Data set [3] can be described thus: Metabolic stability in human liver microsomes assessed as compound remaining. The data set is classed as ADME, Microsome. Background: Microsomes from liver hold many membrane-bound enzymes, among them those of drug oxidation.
A short description of data set [4]: Octanol-water partition coefficient, log P of the compound by LC-MS/MS analysis. The data set is classed as physicochemical.
A short description of data set [5]: Inhibition of Plasmodium vivax SHMT.
The nature of data set [6]: Cytotoxicity against human HUVEC cells assessed as reduction in cell viability. In kind it is toxicity, cell-based.
For data set [7], the target named is T1, Retinoic acid receptor RXR-alpha (Homo sapiens) (UniProt P19793).
T1 sequence (whole entry): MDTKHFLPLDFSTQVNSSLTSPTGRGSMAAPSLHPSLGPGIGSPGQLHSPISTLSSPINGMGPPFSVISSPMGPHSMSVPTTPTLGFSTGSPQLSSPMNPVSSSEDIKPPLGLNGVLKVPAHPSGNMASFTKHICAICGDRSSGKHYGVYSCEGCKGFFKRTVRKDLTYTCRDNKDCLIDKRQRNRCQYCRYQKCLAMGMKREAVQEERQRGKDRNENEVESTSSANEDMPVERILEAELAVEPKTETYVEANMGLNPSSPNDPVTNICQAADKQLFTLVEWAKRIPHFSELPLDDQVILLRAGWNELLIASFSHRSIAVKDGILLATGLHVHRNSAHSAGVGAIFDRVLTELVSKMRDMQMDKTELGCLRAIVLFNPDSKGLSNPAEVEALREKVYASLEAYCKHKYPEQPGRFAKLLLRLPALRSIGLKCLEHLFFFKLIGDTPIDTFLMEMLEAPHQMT
The data set is described as follows: Agonist activity at RXRalpha (unknown origin) using fluorescein-D22 as substrate by fluorescence polarization assay relative to control.

In data set [8] the test system is Influenza A virus. The data set is described as follows: Antiviral activity against wild-type Influenza A virus A/M2 assessed as viral growth inhibition. In kind it is functional, organism-based.
Data set [9] can be described thus: Selectivity ratio of Ki for rat liver Sigma2 receptor to Ki for Guinea pig brain Sigma1 receptor.
Data set [10] addresses NF-kappa-B essential modulator (Homo sapiens, UniProt Q9Y6K9). The data set is described as follows: Binding affinity to full-length human NEMO (1 to 419 residues) assessed as dissociation constant.
Data set [11] in a line: AUC (0 to infinity) in rat plasma at 5 mg/kg, po. In kind it is ADME, organism-based. Set-up: time infinity, dose 5 mg/kg, route po.
The nature of data set [12]: Cmax in rat plasma at 5 mg/kg, po. In kind it is ADME, organism-based. Set-up: dose 5 mg/kg, route po.
Data set [13] has as its target T2, Retinoic acid receptor RXR-alpha (Homo sapiens, UniProt P19793).
T2 sequence (P19793 whole entry): T1 sequence (whole entry)
Kind of data set: Agonist activity at RXRalpha (unknown origin) using fluorescein-D22 as substrate by fluorescence polarization assay. (In fluorescence polarisation assays a small probe gives low polarisation when free and higher when bound to something large.)

Data set [14] can be described thus: Volume of distribution in rat at 2 mg/kg, iv. The data set is classed as ADME, organism-based. Conditions: in vivo.
Data set [15] is described as follows: AUC (0 to 4 hrs) in rat at 5 mg/kg, po. Set-up: time < 4 hr, dose 5 mg/kg, route po. The settings on record: in vivo. The data set is classed as ADME, organism-based.

Bounds are passed on as bounds.

NF-kappa-B essential modulator, sequence (Q9Y6K9 whole entry, the tested form may be a part): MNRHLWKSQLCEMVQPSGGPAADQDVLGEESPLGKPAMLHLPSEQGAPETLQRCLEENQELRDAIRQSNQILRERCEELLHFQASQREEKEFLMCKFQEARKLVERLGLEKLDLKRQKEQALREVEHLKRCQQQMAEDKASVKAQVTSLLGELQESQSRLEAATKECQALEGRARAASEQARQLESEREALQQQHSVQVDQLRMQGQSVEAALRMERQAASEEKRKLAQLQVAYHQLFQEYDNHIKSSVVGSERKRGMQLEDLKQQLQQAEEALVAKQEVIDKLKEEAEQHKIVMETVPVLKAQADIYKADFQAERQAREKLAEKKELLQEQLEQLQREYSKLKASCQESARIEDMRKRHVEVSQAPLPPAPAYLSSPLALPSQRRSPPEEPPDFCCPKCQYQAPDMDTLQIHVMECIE
Phosphoglycerate mutase 1, sequence (P18669 whole entry): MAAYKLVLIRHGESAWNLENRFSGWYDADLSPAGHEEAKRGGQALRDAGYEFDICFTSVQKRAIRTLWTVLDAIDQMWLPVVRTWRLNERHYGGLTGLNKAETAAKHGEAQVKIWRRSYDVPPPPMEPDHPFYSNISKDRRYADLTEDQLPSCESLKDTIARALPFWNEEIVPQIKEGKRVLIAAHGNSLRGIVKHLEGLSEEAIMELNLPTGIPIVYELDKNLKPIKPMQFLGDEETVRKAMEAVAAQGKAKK

Turning to `C#CCCCC(=O)OC(C)(C)C1CCC2(CO2)C(OC(=O)N[C@@H](Cc2c[nH]c3ccccc23)C(=O)OCc2ccccc2)C1` (some centres undefined), the IC50 in data set [1] came out at 19000 nM; in [2], 33000 nM. Consider `O=C1Nc2ccc(F)cc2C12Cc1ccccc1B(O)O2` (centres undefined), for which the Stability in data set [3] is > 80%. Moreover, the logP in data set [4] is < 4. In data set [5], `Cc1[nH]nc2c1[C@]1(C(C#N)=C(N)O2)c2cc(N3CCC(CC(=O)O)CC3)cc(F)c2CC1(C)C` yielded an IC50 of 43 nM. Regarding `O=C1Nc2cc(C(F)(F)F)ccc2C12Cc1ccccc1B(O)O2` (centres undefined), in data set [3], the Stability is > 80%. For the same compound, the lipophilicity (logP) in data set [4] is < 4.

As to `COc1ccc(Cn2nnc3c2[C@]2(CC[C@H]3OC(=O)NC(C)C)CO2)cc1`, the half-maximal effective concentration (EC50) in data set [6] was 94 nM. For `O=C1Nc2cc(Cl)ccc2C12Cc1ccccc1B(O)O2` (centres undefined), the Stability in data set [3] is recorded as > 80%. Further, the logP in data set [4] was < 4.

In turn, `CC1(C)CCC(C)(C)c2cc3c(cc21)CCC1(CCc2cc(C(=O)O)ccc2O1)O3` (racemic) [listing 1 of 2 here] came in with an Efficacy in [7] (filed as agonist) of 53%. With `NC1CCC2(CCCC2)CC1`, the IC50 in [8] is 3300 nM. As for `c1ccc(CN2CC[Si]3(CCCc4ccccc43)CC2)cc1`, the Ratio Ki in data set [9] was 221. `Cc1[nH]nc2c1C1(C(C#N)=C(N)O2)c2cc(N3CCC(CC(=O)O)CC3)cc(F)c2CC1(C)C` (racemic): it took 61 nM to reach half-maximal inhibition in [5] (IC50). For `Cc1ccc([C@@H]2[C@H]3C=C(C=O)[C@@H](c4ccc(C)cc4)[C@H]([N+](=O)[O-])[C@@H]3C[C@@]23C(=O)N(C)c2ccccc23)cc1`, the Kd in data set [10] is 80 nM. Regarding `O=C1Nc2ccc(Cl)cc2C12Cc1ccccc1B(O)O2` (centres undefined), in data set [3], the Stability is recorded as > 80%. Further, the logP in data set [4] was < 4. In data set [7], `CC1(C)CCC(C)(C)c2cc3c(cc21)CCC1(CCc2cc(C(=O)O)ccc2O1)O3` (stereo in doubt; form 2) [listing 1 of 2 here] had an Efficacy of 26%.

As to `c1ccc(CN2CCC3(CCCc4ccccc43)CC2)cc1`, the Ratio Ki in data set [9] stood at 22.

With `NC1CC[Si]2(CCCC2)CC1`, the half-inhibitory concentration (IC50) in data set [8] worked out at 7800 nM. With `O=C1Nc2ccccc2C12Cc1ccccc1B(O)O2` (centres undefined), in data set [3], the Stability is listed as > 80%. Further, the logP in data set [4] is < 4. Take `COc1ccc2nc3c(nc2c1)O[C@@H]1C[C@H]2C(=O)N[C@]4(C(=O)NS(=O)(=O)C5(C)CC5)C[C@H]4/C=C\CCCCC[C@H](NC(=O)O[C@@H]4CCC[C@H]4CCCCC3)C(=O)N2C1.[K+]`: in data set [11], the AUC(0-inf) was 2.4 µM·h. In data set [12], the Cmax is 70 nM. In turn, `CC1(C)CCC(C)(C)c2cc3c(cc21)CCC1(CCc2cc(C(=O)O)ccc2O1)O3` (stereo in doubt; form 1) [listing 1 of 2 here] yielded an Efficacy in data set [7] (filed as agonist) of 54%. `Cc1ccc([C@@H]2[C@H]3C=C(C=O)[C@@H](c4ccc(C)cc4)[C@H]([N+](=O)[O-])[C@@H]3C[C@]23C(=O)N(C)c2ccccc23)cc1`: in data set [10], the dissociation constant Kd was 190 nM. Regarding `CC1(C)CCC(C)(C)c2cc3c(cc21)CCC1(CCc2cc(C(=O)O)ccc2O1)O3` (stereo in doubt; form 2) [listing 2 of 2 here], the EC50 in [13] turned out to be 1200 nM. Take `CN1C(=O)C2(Cc3ccccc3B(O)O2)c2ccccc21` (centres undefined): the Stability in [3] was > 80%. Moreover, in data set [4], the logP is < 4.

With `Cc1[nH]nc2c1[C@@]1(C(C#N)=C(N)O2)c2cc(N3CCC(CC(=O)O)CC3)cc(F)c2CC1(C)C`, the IC50 in [5] was determined as 2510 nM. Turning to `CC1(C)CCC(C)(C)c2cc3c(cc21)CCC1(CCc2cc(C(=O)O)ccc2O1)O3` (racemic) [listing 2 of 2 here], in data set [13], the EC50 amounted to 730 nM. `COc1ccc2nc3c(nc2c1)O[C@@H]1C[C@H]2C(=O)N[C@]4(C(=O)NS(=O)(=O)C5(C)CC5)C[C@H]4/C=C\CCCCC[C@H](NC(=O)O[C@@H]4CCC[C@H]4CCCCC3)C(=O)N2C1` registered a Vd in [14] of 4 L/kg. This compound also came in with an AUC(0-t) at 4 h in data set [15] of 0.77 µM·h. Consider `CC1(C)CCC(C)(C)c2cc3c(cc21)CCC1(CCc2cc(C(=O)O)ccc2O1)O3` (stereo in doubt; form 1) [listing 2 of 2 here], for which the EC50 in [13] worked out at 170 nM.

The IC50 is the point on the concentration scale where inhibition reaches its midpoint. What is called logP is the decadic logarithm of the partition coefficient of the neutral form, usually between octanol and water. A higher logP goes with higher lipophilicity. The term EC50 denotes the concentration at which the effect is half-maximal. The Kd is the concentration at which binding is half-saturated. The term AUC(0-inf) denotes total exposure, with the tail of the curve extrapolated. A low value points to less exposure. A word on the Cmax: it is the peak of the concentration-time curve. The Vd is the apparent volume that relates the amount in the body to the concentration in plasma or blood. Low readings indicate confinement near the circulation, high ones extensive tissue distribution. A word on the AUC(0-t): it is exposure summed from dosing to a finite time, without extrapolation to infinity. A higher AUC(0-t) goes with high exposure.

The record behind these values is ChEMBL document CHEMBL5096153, “Spirocyclic Scaffolds in Medicinal Chemistry” (J Med Chem, 2021).
